From patent EP0604667A1, “TRANEXAMIC ACID DERIVATIVE AND DERMATOLOGIC PREPARATION CONTAINING THE SAME” (SHISEIDO COMPANY LIMITED, priority 1992, dated 1994)

Key:
[1] = system: deposition of melanin pigmentation; assay: Examination for depigmentation effect: lotion applied to skin after sunlight exposure, judged by the subjects; assay type: in vivo; settings: for DEPIGMENTATION EFFECT / DEPI[…]: lotion with 1.0 weight% compound; for effect to prevent the deposition of melanin pigmentation after the skin was exposed to the sunlight: in words, text summary of the tables, test lotions compared with hydroquinone, tranexamic acid and no compound
Procedure: 60 subjects were disposed under sunlight for 4 hours in summer (2 hours × 2 days). The lotions were applied to skin of medial brachia for once in each morning and evening from 5 days after the day when the skin was exposed to the sun light for eight weeks. The one group consists of 10 subjects and six groups were given for the examination in accordance with the following prescriptions. […] The aqueous phase and the alcohol phase were prepared respectively, and both phase were mixed and dissolved. […] X: The number of subjects who judged the result was "extremely effective" and "effective" were less than 30 %. TABLE 1 Depigmentation effect was examined by using the following external preparations for skin in accordance with the above described condition. […] The alcohol phase and aqueous phase were prepared respectively, and both phase were mixed and dissolved. TABLE 3 Depigmentation effect was examined by using the following external preparations for skin in accordance with the above described condition. […] The alcohol phase and aqueous phase were prepared respectively, and both phase were mixed and dissolved.

[2] = system: face of subjects; assay: Examination for skin care effect: half-face application against comparison 1, judged by the subjects; assay type: in vivo, women
Procedure: One group of subjects consists of ten women and 3 groups of the subjects were given for the examination.
The effectiveness of three items (moisturising effect, texture of skin surface, maintenance (one day) of moisturising effect) were evaluated according to the following standards.
Ⓞ: The number of subjects who judged the result was "extremely effective" and "effective" were not less than 80 %. ○: The number of subjects who judged the result was "extremely effective" and "effective" were from 50% to 80%. △: The number of subjects who judged the result was "extremely effective" and "effective" were from 30% to 50%. X: The number of subjects who judged the result was "extremely effective " and "effective" were less than 30%.
Skin care effect of the examples was examined in accordance with the above-mentioned condition.

[3] = TABLE 5, same condition as TABLE 1
[4] = TABLE 6, lotion with 1.0 weight% compound, same condition as TABLE 2
[5] = TABLE 1, skin of medial brachia, morning and evening for eight weeks from 5 days after sunlight exposure (4 hours), 10 subjects per group
[6] = TABLE 2, lotion with 1.0 weight% compound on left half of face, every morning and night for two weeks, ten women per group
[7] = TABLE 2, maintenance (one day), lotion with 1.0 weight% compound on left half of face, every morning and night for two weeks, ten women per group
[8] = TABLE 3, same condition as TABLE 1
[9] = TABLE 4, lotion with 1.0 weight% compound, same condition as TABLE 2

| Compound | DEPIGMENTATION EFFECT [1, 3] | DEPIGMENTATION EFFECT [1, 5] | effect to prevent the deposition of melanin pigmentation after the skin was exposed to the sunlight [1] | MOISTURISING EFFECT [2, 6] | TEXTURE OF SKIN SURFACE [2, 6] | MAINTENANCE OF MOISTURISING EFFECT [2, 7] | also measured |
| --- | --- | --- | --- | --- | --- | --- | --- |
| NC[C@H]1CC[C@H](C(=O)Oc2ccc(O)cc2)CC1 [EXM.3-1, 4'-hydroxy phenyl trans-4-aminomethyl cyclohexane carboxylate] | Ⓞ (The number of subjects who judged the result was "extremely effective" and "effective" were not less than 80%.) | – | – | – | – | – | MAINTENANCE OF MOISTURISING EFFECT [2, 4]: Ⓞ (The number of subjects who judged the result was "extremely effective" and "effective" were not less than 80 %.); MOISTURISING EFFECT [2, 4]: Ⓞ (The number of subjects who judged the result was "extremely effective" and "effective" were not less than 80 %.); TEXTURE OF SKIN SURFACE [2, 4]: Ⓞ (The number of subjects who judged the result was "extremely effective" and "effective" were not less than 80 %.) |
| NC[C@H]1CC[C@H](C(=O)Oc2ccc(O)c(C(=O)O)c2)CC1 [EXM.1-2, 5-(trans-4-aminomethylcyclohexylcarbonyloxy)-2-hydroxy benzoic acid] | – | Ⓞ (The number of subjects who judged the result was "extremely effective" and "effective" were not less than 80%.) | excellent | Ⓞ (The number of subjects who judged the result was "extremely effective" and "effective" were not less than 80 %.) | Ⓞ (The number of subjects who judged the result was "extremely effective" and "effective" were not less than 80 %.) | Ⓞ (The number of subjects who judged the result was "extremely effective" and "effective" were not less than 80 %.) | – |
| 4'-hydroxy phenyl trans-4-aminomethyl cyclohexane carboxylate hydrochloride [EXM.3-2] | Ⓞ (The number of subjects who judged the result was "extremely effective" and "effective" were not less than 80%.) | – | – | – | – | – | MAINTENANCE OF MOISTURISING EFFECT [2, 4]: Ⓞ (The number of subjects who judged the result was "extremely effective" and "effective" were not less than 80 %.); MOISTURISING EFFECT [2, 4]: Ⓞ (The number of subjects who judged the result was "extremely effective" and "effective" were not less than 80 %.); TEXTURE OF SKIN SURFACE [2, 4]: Ⓞ (The number of subjects who judged the result was "extremely effective" and "effective" were not less than 80 %.) |
| NC[C@H]1CC[C@H](C(=O)NC[C@H]2CC[C@H](C(=O)O)CC2)CC1 [EXM.2-1, Trans-4-(trans-4-aminomethylcyclohexanecarbonyl) aminomethyl cyclohexane carboxylic acid] | – | – | – | – | – | – | DEPIGMENTATION EFFECT [1, 8]: Ⓞ (The number of subjects who judged the result was "extremely effective" and "effective" were not less than 80%.); MAINTENANCE OF MOISTURISING EFFECT [2, 9]: Ⓞ (The number of subjects who judged the result was "extremely effective" and "effective" were not less than 80 %.); MOISTURISING EFFECT [2, 9]: Ⓞ (The number of subjects who judged the result was "extremely effective" and "effective" were not less than 80 %.); TEXTURE OF SKIN SURFACE [2, 9]: Ⓞ (The number of subjects who judged the result was "extremely effective" and "effective" were not less than 80 %.) |
| Cl.NC[C@H]1CC[C@H](C(=O)Oc2ccc(O)cc2C(=O)O)CC1 [EXM.1-3, 2-(trans-4-aminomethylcyclohexylcarbonyloxy)-5-hydroxy benzoic acid hydrochloride] | – | Ⓞ (The number of subjects who judged the result was "extremely effective" and "effective" were not less than 80%.) | excellent | Ⓞ (The number of subjects who judged the result was "extremely effective" and "effective" were not less than 80 %.) | Ⓞ (The number of subjects who judged the result was "extremely effective" and "effective" were not less than 80 %.) | Ⓞ (The number of subjects who judged the result was "extremely effective" and "effective" were not less than 80 %.) | – |
| NC[C@H]1CC[C@H](C(=O)Oc2ccc(O)cc2C(=O)O)CC1 [EXM.1-1, 2-(trans-4-aminomethylcyclohexylcarbonyloxy)-5-hydroxy benzoic acid] | – | Ⓞ (The number of subjects who judged the result was "extremely effective" and "effective" were not less than 80%.) | excellent | Ⓞ (The number of subjects who judged the result was "extremely effective" and "effective" were not less than 80 %.) | Ⓞ (The number of subjects who judged the result was "extremely effective" and "effective" were not less than 80 %.) | Ⓞ (The number of subjects who judged the result was "extremely effective" and "effective" were not less than 80 %.) | – |
| NC[C@H]1CC[C@H](C(=O)O)CC1 [COMP.3, tranexamic acid] | △ (The number of subjects who judged the result was "extremely effective" and "effective" were from 30% to 50%.) | – | – | – | – | – | DEPIGMENTATION EFFECT [1, 8]: ○ (The number of subjects who judged the result was "extremely effective" and "effective" were from 50% to 80%.) |
| Oc1ccc(O)cc1 [COMP.2, hydroquinone, reference compound] | – | – | – | – | – | – | DEPI[…] [1, 5]: △ (The number of subjects who judged the result was "extremely effective" and "effective" were from 30% to 50%.); DEPI[…] [1, 8]: △ (The number of subjects who judged the result was "extremely effective" and "effective" were from 30% to 50%.); DEPI[…] [1, 3]: △ (The number of subjects who judged the result was "extremely effective" and "effective" were from 30% to 50%.) |
